Key:
[1] = system: GLXMAW (Soybean, Williams); experiment: Preemergence herbicidal evaluation; assay type: in vivo, Glycine max, (L.) Merr. cv Williams; conditions: rated 4-5 weeks after treatment
How it was run: (§1)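 Seeds were planted in potting soil in cups, then sprayed preemergence with the test compound in aqueous acetone at about 0.0156 to 0.500 kg per hectare. Cups were kept under greenhouse conditions and visually rated 4–5 weeks after treatment on a 0–9 scale against an untreated control.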

[2] = system: IPOHE (Morningglory, Ivyleaf); experiment: Postemergence herbicidal evaluation; assay type: in vivo, Ipomoea hederacea; conditions: for IPOHE herbicidal rating: postemergence
How it was run: (§2)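 Two-week seedlings sprayed postemergence at 40 psi; formulation: 1:1 acetone/water, 0.5% TWEEN 20; application ≈0.0156–0.500 kg/ha. Greenhouse grow-out, then 0–9 visual scoring at 4–5 weeks.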

ORYSAT (Rice, Tebonnet) [3] = experiment: Rice tolerance to post-transplant applications, flooded paddy conditions (Table III); assay type: in vivo, Oryza sativa, (L.) Tebonnet
How it was run: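 Two ten-day-old Tebonnet seedlings transplanted into flooded silt loam (water 1.5 to 3 cm above soil); three days later the water surface was treated with compound in aqueous/acetone 50/50 at about 0.0313 to 0.500 kg/ha. Visual 0-9 injury rating versus control after three to four weeks in greenhouse.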

GALAP (Galium) = experiment: Preemergence herbicidal evaluation; assay type: in vivo, Galium aparine; conditions: rated 4-5 weeks after treatment
How it was run: as §1

MOOVA (Monochoria) = experiment: Postemergence weed control under flooded paddy conditions; assay type: in vivo, Monochoria vaginalis; conditions: postemergence weeds, 3-4 weeks after treatment
How it was run: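 Containers holding 3–5 cm weeds and rice at 1.5–2.5 leaves are flooded to 1.5–3 cm above soil. Compound in 50/50 v/v aqueous/acetone is then added directly to the water, about 0.0313–0.500 kg/ha. Plants are kept in the greenhouse and rated 0–9 visually at 3–4 weeks.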

ORYSAT (Rice, Tebonnet) [4] = experiment: Rice tolerance to post-transplant applications, flooded paddy conditions (Table IV); assay type: in vivo, Oryza sativa, (L.) Tebonnet
Description: Results of herbicide evaluation are expressed on a rating scale (0-9). The scale is based upon a visual observation of plant stand, vigor, malformation, size, chlorosis and overall plant appearance as compared with a control.
Plastic containers containing weeds which are 3 to 5 cm tall and rice seedlings at the 1.5 to 2.5 leaf stage are flooded with water. The water is maintained at 1.5 to 3 cm above the soil surface for the duration of the experiment. Test compounds are applied as aqueous/ acetone mixtures 50/50 v/v directly into the flood water to provide the equivalent of about 0.0313 to 0.500 kg/ha of active ingredient. The treated containers are placed on greenhouse benches and cared for in accordance with conventional greenhouse procedures. Three to four weeks after treatment, the test is terminated and each container is examined and herbicidal effect rated according to the rating system provided in Example 37. The compounds evaluated are reported by compound number given in Example 37.

[5] = system: CHEAL (Lambsquarters, Common); experiment: Postemergence herbicidal evaluation; assay type: in vivo, Chenopodium album; conditions: for CHEAL herbicidal rating: postemergence
How it was run: as §2

ECHCG (Barnyardgrass) = experiment: Preemergence herbicidal evaluation; assay type: in vivo, Echinochloa crus-galli; conditions: rated 4-5 weeks after treatment
How it was run: as §1

Row | Molecule | IPOHE herbicidal rating ([2]; rate 0.0158 kg/ha) | IPOHE herbicidal rating ([2]; rate 0.0315 kg/ha) | Herbicidal rating ORYSAT (rice tolerance) (ORYSAT (Rice, Tebonnet) [3]; in vivo) | Herbicidal rating MOOVA (MOOVA (Monochoria); rate 0.0313 kg/ha) | Herbicidal rating ORYSAT (rice tolerance) (ORYSAT (Rice, Tebonnet) [4]; in vivo) | Postemergence herbicidal rating IPOHE ([2]; Rate 0.0158 kg/ha) | Postemergence herbicidal rating IPOHE ([2]; Rate 0.0315 kg/ha) | Postemergence herbicidal rating IPOHE ([2]; Rate 0.0630 kg/ha) | Postemergence herbicidal rating CHEAL ([5]; Rate 0.0158 kg/ha) | Postemergence herbicidal rating CHEAL ([5]; Rate 0.0315 kg/ha) | Postemergence herbicidal rating CHEAL ([5]; Rate 0.0630 kg/ha) | Preemergence herbicidal rating GLXMAW ([1]; rate 0.0313 kg/ha) | Preemergence herbicidal rating GLXMAW ([1]; rate 0.0625 kg/ha) | Preemergence herbicidal rating GLXMAW ([1]; rate 0.1250 kg/ha) | Preemergence herbicidal rating GALAP (GALAP (Galium); rate 0.0313 kg/ha) | Preemergence herbicidal rating GALAP (GALAP (Galium); rate 0.0625 kg/ha) | Preemergence herbicidal rating ECHCG (ECHCG (Barnyardgrass); rate 0.0313 kg/ha) | Preemergence herbicidal rating ECHCG (ECHCG (Barnyardgrass); rate 0.0625 kg/ha) | Preemergence herbicidal rating ECHCG (ECHCG (Barnyardgrass); rate 0.1250 kg/ha) | Preemergence herbicidal rating ECHCG (ECHCG (Barnyardgrass); rate 0.2500 kg/ha) | other results
1 | CCOC(=O)CN1C(=O)C(Cc2ccccc2)SC1=Nc1cc(-n2c(=O)cc(C(F)(F)F)n(C)c2=O)c(F)cc1Cl (stereo not drawn) [Compound 24, Ethyl 5-benzyl-2-{{2-chloro-5-[3,6-dihydro-3-methyl-2,6-dioxo-4-(trifluoromethyl)-1(2H)-pyrimidinyl]-4-fluorophenyl}imino}-4-oxo-3-thiazolidineacetate] | 2.0 | 9.0 | 0.0 | 0.0 | 0.0 |  |  |  |  |  |  |  |  |  |  |  |  |  |  |  | GLXMAW preemergence herbicidal rating ([1]; rate 0.0625 kg/ha): 0.0; GLXMAW preemergence herbicidal rating ([1]; rate 0.1250 kg/ha): 0.0; GLXMAW preemergence herbicidal rating ([1]; rate 0.2500 kg/ha): 0.0; GALAP preemergence herbicidal rating (GALAP (Galium); rate 0.0625 kg/ha): 0.0; GALAP preemergence herbicidal rating (GALAP (Galium); rate 0.1250 kg/ha): 0.0; GALAP preemergence herbicidal rating (GALAP (Galium); rate 0.2500 kg/ha): 4.0; Herbicidal rating MOOVA (MOOVA (Monochoria); rate 0.0625 kg/ha): 9.0; Herbicidal rating MOOVA (MOOVA (Monochoria); rate 0.1250 kg/ha): 9.0; Herbicidal rating MOOVA (MOOVA (Monochoria); rate 0.2500 kg/ha): 9.0; CHEAL herbicidal rating ([5]; rate 0.0158 kg/ha): 2.0; CHEAL herbicidal rating ([5]; rate 0.0315 kg/ha): 4.0; CHEAL herbicidal rating ([5]; rate 0.0630 kg/ha): 9.0; ECHCG preemergence herbicidal rating (ECHCG (Barnyardgrass); rate 0.0625 kg/ha): 0.0; ECHCG preemergence herbicidal rating (ECHCG (Barnyardgrass); rate 0.1250 kg/ha): 0.0; ECHCG preemergence herbicidal rating (ECHCG (Barnyardgrass); rate 0.2500 kg/ha): 0.0
2 | 2-{{2-Chloro-5-[3,6-dihydro-3-methyl-2,6-dioxo-4-(trifluoromethyl)-1(2H)-pyrimidinyl]-4-fluoro-phenyl}imino}-4-oxo-3,5-thiazolidenediacetic acid, 3-ethyl (2-propynyl) ester, (2:1) mixture with di-2-propynyl ester [Compound 58] |  |  |  | 0.0 |  | 9.0 | 9.0 | 9.0 | 9.0 | 9.0 | 9.0 |  |  |  |  |  |  |  |  |  | ORYSAT herbicidal effect rating (rice tolerance) (ORYSAT (Rice, Tebonnet) [3]; in vivo): 4.0; Herbicidal rating MOOVA (MOOVA (Monochoria); rate 0.0625 kg/ha): 0.0; Herbicidal rating MOOVA (MOOVA (Monochoria); rate 0.1250 kg/ha): 3.0; Herbicidal rating MOOVA (MOOVA (Monochoria); rate 0.2500 kg/ha): 9.0
3 | CCOC(=O)CN1C(=O)C(CC(=O)O)SC1=Nc1cc(-n2c(=O)cc(C(F)(F)F)n(C)c2=O)c(Cl)cc1Cl (stereo not drawn) [Compound 33, 2-{{2,4-Dichloro-5-[3,6-dihydro-3-methyl-2,6-dioxo-4-(trifluoromethyl)-1(2H)-pyrimidinyl]phenyl}-imino}-4-oxo-3,5-thiazolidinediacetic acid, 3-ethyl ester] |  |  | 0.0 |  | 0.0 | 9.0 | 9.0 | 9.0 | 9.0 | 9.0 | 9.0 | 0.0 | 0.0 | 0.0 | 0.0 | 0.0 | 0.0 | 0.0 | 0.0 | 0.0 | Preemergence herbicidal rating GLXMAW ([1]; rate 0.0156 kg/ha): 0.0; Preemergence herbicidal rating GLXMAW ([1]; rate 0.2500 kg/ha): 0.0; Preemergence herbicidal rating GALAP (GALAP (Galium); rate 0.0156 kg/ha): 0.0; Preemergence herbicidal rating ECHCG (ECHCG (Barnyardgrass); rate 0.0156 kg/ha): 0.0
4 | CC(C)C[C@@H](C(=O)O)N1C(=O)CSC1=Nc1cc(-n2c(=O)cc(C(F)(F)F)n(C)c2=O)c(F)cc1Cl [Compound 71, α-Isobutyl-2-{{2-chloro-5-[3,6-dihydro-3-methyl-2,6-dioxo-4-(trifluoromethyl)-1(2H)-pyrimidinyl]-4-fluorophenyl}imino}-4-oxo-3-thiazolidineacetic acid, L-] | 9.0 | 9.0 |  |  | 4.0 |  |  |  |  |  |  | 0.0 | 1.0 | 3.0 | 0.0 | 0.0 | 0.0 | 0.0 | 2.0 | 4.0 | Preemergence herbicidal rating GLXMAW ([1]; rate 0.0156 kg/ha): 1.0; IPOHE herbicidal rating ([2]; rate 0.0630 kg/ha): 9.0; ORYSAT herbicidal effect rating (rice tolerance) (ORYSAT (Rice, Tebonnet) [3]; in vivo): 4.0; Preemergence herbicidal rating GALAP (GALAP (Galium); rate 0.0156 kg/ha): 0.0; Preemergence herbicidal rating GALAP (GALAP (Galium); rate 0.1250 kg/ha): 9.0; Preemergence herbicidal rating GALAP (GALAP (Galium); rate 0.2500 kg/ha): 6.0; CHEAL herbicidal rating ([5]; rate 0.0158 kg/ha): 6.0; CHEAL herbicidal rating ([5]; rate 0.0315 kg/ha): 7.0; Preemergence herbicidal rating ECHCG (ECHCG (Barnyardgrass); rate 0.0156 kg/ha): 0.0
5 | CCOC(=O)CN1CC(=O)N(CC(=O)OCC)C1=Nc1cc(-n2c(=O)cc(C(F)(F)F)n(C)c2=O)c(F)cc1Cl [Compound 34, 2-{{2-Chloro-5-[3,6-dihydro-3-methyl-2,6-dioxo-4-(trifluoromethyl)-1(2H)-pyrimidinyl]-4-fluoro-phenyl}imino}-4-oxo-1,3-imidazolidinediacetic acid, diethyl ester] |  |  |  |  |  | 9.0 | 9.0 | 9.0 | 7.0 | 9.0 | 9.0 | 0.0 | 0.0 | 0.0 | 0.0 | 7.0 | 0.0 | 0.0 | 2.0 | 5.0 | Preemergence herbicidal rating GLXMAW ([1]; rate 0.2500 kg/ha): 0.0; Herbicidal rating ORYSAT (rice tolerance) (ORYSAT (Rice, Tebonnet) [3]; 0.0313 kg/ha, post-transplant rice, flooded paddy, rated 3-4 weeks after treatment): 3.0; Herbicidal rating ORYSAT (rice tolerance) (ORYSAT (Rice, Tebonnet) [3]; 0.0625 kg/ha, post-transplant rice, flooded paddy, rated 3-4 weeks after treatment): 3.0; Herbicidal rating ORYSAT (rice tolerance) (ORYSAT (Rice, Tebonnet) [3]; 0.1250 kg/ha, post-transplant rice, flooded paddy, rated 3-4 weeks after treatment): 4.0; Herbicidal rating ORYSAT (rice tolerance) (ORYSAT (Rice, Tebonnet) [3]; 0.2500 kg/ha, post-transplant rice, flooded paddy, rated 3-4 weeks after treatment): 6.0; Preemergence herbicidal rating GALAP (GALAP (Galium); rate 0.1250 kg/ha): 7.0; Preemergence herbicidal rating GALAP (GALAP (Galium); rate 0.2500 kg/ha): 9.0; Herbicidal rating ORYSAT (rice tolerance) (ORYSAT (Rice, Tebonnet) [4]; rate 0.0313 kg/ha, flooded paddy, post-transplant rice, 3-4 weeks after treatment): 3.0; Herbicidal rating ORYSAT (rice tolerance) (ORYSAT (Rice, Tebonnet) [4]; rate 0.0625 kg/ha, flooded paddy, post-transplant rice, 3-4 weeks after treatment): 3.0; Herbicidal rating ORYSAT (rice tolerance) (ORYSAT (Rice, Tebonnet) [4]; rate 0.1250 kg/ha, flooded paddy, post-transplant rice, 3-4 weeks after treatment): 4.0; Herbicidal rating ORYSAT (rice tolerance) (ORYSAT (Rice, Tebonnet) [4]; rate 0.2500 kg/ha, flooded paddy, post-transplant rice, 3-4 weeks after treatment): 6.0

Source: US20020137929A1, “1 - (3-heterocyclylphenyl) isothiourea, -isourea, -guanidine and -amidine herbicidal agents” (Intellectual Property Department, BASF Aktiengesellschaft, priority 1998, published 2002)
